# What was measured:
# Aβ42 [1] = assay: In vivo efficacy, Method 2: brain soluble Aβ42 lowering 4 h after a single oral dose, ELISA (Table 4b); parameters: species or system mouse; conditions: dose 30 mg/kg oral dosing
# Source text: (§1) To determine whether acute administration of an Aβ42 lowering agent would reduce Aβ42 levels in vivo, non-transgenic rodents, e.g. mice or rats were used. Animals treated with the Aβ42 lowering agent were examined and compared to those untreated or treated with vehicle and brain levels of soluble Aβ42 and total Aβ were quantitated by standard techniques, for example, using ELISA. Treatment periods varied from hours (h) to days and were adjusted based on the results of the Aβ42 lowering once a time course of onset of effect could be established.
# (§2) A typical protocol for measuring Aβ42 lowering in vivo is shown but it is only one of many variations that could be used to optimize the levels of detectable Aβ. For example, Aβ42 lowering compounds were formulated in 20% of Captisol® (a sulfobutyl ether of β-cyclodextrin) in water or 20% hydroxypropyl β cyclodextrin. The Aβ42 lowering agents were administered as a single oral dose or by any acceptable route of administration to overnight fasted animals. After 4 h, the animals were sacrificed and Aβ42 levels were analysed.
# (§3) Blood was collected by decapitation and exsanguinations in EDTA-treated collection tubes. Blood was centrifuged at 1900 g for 10 minutes (min) at 4° C. and the plasma recovered and flash frozen for later analysis. The brain was removed from the cranium and hindbrain. The cerebellum was removed and the left and right hemisphere were separated. The left hemisphere was stored at −18° C. for quantitative analysis of test compound levels. The right hemisphere was rinsed with phosphate-buffered saline (PBS) buffer and immediately frozen on dry ice and stored at −80° C. until homogenization for biochemical assays.
# (§4) Mouse brains from non-transgenic animals were resuspended in 8 volumes of 0.4% DEA (diethylamine)/50 mM NaCl containing protease inhibitors (Roche-11873580001 or 04693159001) per gram of tissue, e.g. for 0.158 g brain, add 1.264 ml of 0.4% DEA. All samples were homogenized in the FastPrep-24 system (MP Biomedicals) using lysing matrix D (MPBio #6913-100) at 6 m/s for 20 seconds. Homogenates were centrifuged at 221.300×g for 50 min. The resulting high speed supernatants were then transferred to fresh eppendorf tubes. Nine parts of supernatant were neutralized with 1 part 0.5 M Tris-HCl pH 6.8 and used to quantify Aβtotal and Aβ42.
# (§5) To quantify the amount of Aβtotal and Aβ42 in the soluble fraction of the brain homogenates, Enzyme-Linked-Immunosorbent-Assays were used. Briefly, the standards (a dilution of synthetic Aβ1-40 and Aβ1-42, Bachem) were prepared in 1.5 ml Eppendorf tube in Ultraculture, with final concentrations ranging from 10000 to 0.3 pg/ml. The samples and standards were co-incubated with HRPO-labelled N-terminal antibody for Aβ42 detection and with the biotinylated mid-domain antibody 4G8 for Aβtotal detection. 50 μl of conjugate/sample or conjugate/standards mixtures were then added to the antibody-coated plate (the capture antibodies selectively recognize the C-terminal end of Aβ42, antibody JRF/cAβ42/26, for Aβ42 detection and the N-terminus of Aβ, antibody JRF/rAβ/2, for Aβtotal detection). The plate was allowed to incubate overnight at 4° C. in order to allow formation of the antibody-amyloid complex. Following this incubation and subsequent wash steps the ELISA for Aβ42 quantification was finished by addition of Quanta Blu fluorogenic peroxidase substrate according to the manufacturer's instructions (Pierce Corp., Rockford, Ill.). A reading was performed after 10 to 15 min (excitation 320/emission 420).
# In this model at least 20% Aβ42 lowering compared to untreated animals would be advantageous.
# (§6) The results are shown in Table 4b (dose 30 mg/kg oral dosing): […]
# Aβtotal [2] = assay: In vivo efficacy, Method 2: brain soluble Aβtotal lowering 4 h after a single oral dose, ELISA (Table 4b); parameters: species or system mouse; conditions: dose 30 mg/kg oral dosing
# Source text: as §1, §2, §3, §4, §5
# For Aβtotal detection, a Streptavidine-Peroxidase-Conjugate was added, followed 60 min later by an additional wash step and addition of Quanta Blu fluorogenic peroxidase substrate according to the manufacturer's instructions (Pierce Corp., Rockford, Ill.). A reading was performed after 10 to 15 min (excitation 320 nm/emission 420 nm).
# as §6
# Aβtotal [3] = assay: γ-secretase-modulating activity, Method 2: Aβtotal Alphalisa in supernatant of SKNBE2 cells carrying APP 695-wild type (Table 3b); format: cell-based; conditions: overnight, read-out: IC50 Aβtot
# How it was run: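 Secreted Aβtotal was quantified by AlphaLISA pairing an N-terminal antibody (JRF/AβN/25) with biotinylated mid-region 4G8. Wild-type APP 695 SKNBE2 cells received serially varied compound overnight at 37 °C; IC50 came from a 4-parameter nonlinear regression of percent of control against log dose.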
# Aβ42 [4] = assay: γ-secretase-modulating activity, Method 2: Aβ42 Alphalisa in supernatant of SKNBE2 cells carrying APP 695-wild type (Table 3b); format: cell-based; conditions: overnight
# How it was run: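 Aβ42 in the supernatant was quantified by AlphaLISA sandwich (JRF/cAβ42/26 with JRF/AβN/25). Cells were wild-type APP695 SKNBE2, exposed to compound overnight at 37° C., 5% CO2. Data were normalised to untreated maximum and fitted with a four-parameter curve to give IC50.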
SMILES,Aβ42 (% Ctrl) _Mean (Aβ42 [1]),Aβtotal (% Ctrl) _Mean (Aβtotal [2]),IC50 (Aβtotal [3]),IC50 (Aβ42 [4]),Aβ42 (% Ctrl) _Mean (Aβ42 [1]; 30 mg/kg),Aβtotal (% Ctrl) _Mean (Aβtotal [2]; 30 mg/kg)
COc1cc(-c2nc(Nc3cc(Cl)ccc3Cl)n(C)n2)ccc1-n1cnc(C)c1 [Compound 111],33 % Ctrl,15 % Ctrl,> 10000 nM,13 nM,–,–
COc1nc(-c2nc(Nc3cc(OC(F)(F)F)ccc3F)n(C)n2)ccc1-n1cnc(C)c1 [Compound 184],69 % Ctrl,15 % Ctrl,> 15000 nM,13 nM,–,–
COc1cc(-c2nc(Nc3cccc(OC(F)(F)F)c3)n(C)n2)ccc1-n1cnc(C)c1 [Compound 181],28 % Ctrl,9 % Ctrl,5750 nM,25 nM,–,–
COc1cc(-c2nc3n(n2)CCC[C@H]3c2ccccc2C(F)(F)F)ccc1-n1cnc(C)c1 [Compound 261],46 % Ctrl,6 % Ctrl,> 15000 nM,24 nM,–,–
COc1nc(-c2nc(Nc3cccc(F)c3Cl)n(C)n2)ccc1-n1cnc(C)c1 [Compound 302],31 % Ctrl,−3 % Ctrl,> 10000 nM,71 nM,–,–
COc1nc(-c2nc(Nc3cccc(Cl)c3)n(C)n2)ccc1-n1cnc(C)c1 [Compound 100],12 % Ctrl,−4 % Ctrl,> 10000 nM,28 nM,–,–
COc1cc(-c2nc3n(n2)CCOC3c2cc(OC(F)(F)F)ccc2F)ccc1-n1cnc(C)c1 (stereo not drawn) [Compound 128],47 % Ctrl,24 % Ctrl,> 10000 nM,28 nM,–,–
COc1cc(-c2nc(Nc3cccc(C(F)(F)F)c3F)n(C)n2)ccc1-n1cnc(C)c1 [Compound 148],37 % Ctrl,12 % Ctrl,> 10000 nM,23 nM,–,–
COc1cc(-c2nc(Nc3c(F)cccc3OC)n(C)n2)ccc1-n1cnc(C)c1 [Compound 214],−15 % Ctrl,0 % Ctrl,> 10000 nM,170 nM,–,–
COc1cc(-c2nc(Nc3ccccc3C(C)C)n(C)n2)ccc1-n1cnc(C)c1 [Compound 99],58 % Ctrl,−2 % Ctrl,> 10000 nM,19 nM,–,–
COc1nc(-c2nc(Nc3cccc(C(F)(F)F)c3)n(C)n2)ccc1-n1cnc(C)c1 [Compound 153],14 % Ctrl,−6 % Ctrl,> 10000 nM,8 nM,–,–
COc1cc(-c2nc(Nc3cccc(F)c3Cl)n(C)n2)ccc1-n1cnc(C)c1 [Compound 114],53 % Ctrl,9 % Ctrl,> 10000 nM,56 nM,–,–
COc1cc(Nc2nc(-c3ccc(-n4cnc(C)c4)c(OC)c3)nn2C)cc(C(F)(F)F)c1 [Compound 213],9 % Ctrl,7 % Ctrl,8910 nM,5 nM,–,–
COc1nc(-c2nc(Nc3cccc(C(F)(F)F)c3F)n(C)n2)ccc1-n1cnc(C)c1 [Compound 167],52 % Ctrl,−1 % Ctrl,> 15000 nM,38 nM,–,–
COCc1ccccc1Nc1nc(-c2ccc(-n3cnc(C)c3)c(OC)c2)nn1C.Cl [Compound 204],41 % Ctrl,2 % Ctrl,> 10000 nM,110 nM,–,–
COc1cc(-c2nc(Nc3cc(C)ccc3C)n(C)n2)ccc1-n1cnc(C)c1 [Compound 198],55 % Ctrl,6 % Ctrl,> 10000 nM,13 nM,–,–
COc1cc(-c2nc(Nc3c(F)ccc(C(F)(F)F)c3F)n(C)n2)ccc1-n1cnc(C)c1 [Compound 211],32 % Ctrl,−1 % Ctrl,> 10000 nM,25 nM,–,–
COc1cc(-c2nc3n(n2)CCCC3c2cc(OC(F)(F)F)ccc2F)ccc1-n1cnc(C)c1 (stereo not drawn) [Compound 265],55 % Ctrl,22 % Ctrl,> 10000 nM,19 nM,–,–
COc1cc(-c2nc(Nc3c(F)cccc3Cl)n(C)n2)ccc1-n1cnc(C)c1 [Compound 125],2 % Ctrl,11 % Ctrl,> 10000 nM,85 nM,–,–
COc1cc(-c2nc3n(n2)CCOC3c2ccccc2C(F)(F)F)ccc1-n1cnc(C)c1 (stereo not drawn) [Compound 306],–,–,> 10000 nM,71 nM,22 % Ctrl,−2 % Ctrl
COc1cc(-c2nc(Nc3cc(C(F)(F)F)cc(C(F)(F)F)c3)n(C)n2)ccc1-n1cnc(C)c1 [Compound 150],−6 % Ctrl,−8 % Ctrl,> 10000 nM,13 nM,–,–
COc1nc(-c2nc(N(C)c3cc(C(F)(F)F)ccc3F)n(C)n2)ccc1-n1cnc(C)c1 [Compound 337],30 % Ctrl,3 % Ctrl,> 10000 nM,263 nM,–,–
COc1cc(-c2nc(Nc3cc(OC(C)C)ccc3F)n(C)n2)ccc1-n1cnc(C)c1 [Compound 307],19 % Ctrl,−2 % Ctrl,> 10000 nM,8 nM,–,–
COc1cc(-c2nc(Nc3cccc(C)c3F)n(C)n2)ccc1-n1cnc(C)c1 [Compound 161],45 % Ctrl,8 % Ctrl,> 10000 nM,78 nM,–,–
COc1cc(-c2nc(Nc3cccc(Cl)c3C)n(C)n2)ccc1-n1cnc(C)c1 [Compound 129],56 % Ctrl,9 % Ctrl,> 10000 nM,25 nM,–,–
COc1cc(-c2nc(Nc3cc(C(F)(F)F)cc(OC)c3F)n(C)n2)ccc1-n1cnc(C)c1 [Compound 203],54 % Ctrl,6 % Ctrl,> 10000 nM,10 nM,–,–
COc1cc(-c2nc(Nc3cc(C(F)(F)F)cc(F)c3F)n(C)n2)ccc1-n1cnc(C)c1 [Compound 140],33 % Ctrl,8 % Ctrl,> 10000 nM,20 nM,–,–
COc1cc(-c2nc(Nc3cc(N(C)C)ccc3F)n(C)n2)ccc1-n1cnc(C)c1 [Compound 180],51 % Ctrl,10 % Ctrl,> 10000 nM,22 nM,–,–
COc1cc(-c2nc(Nc3cc(C(F)(F)F)ccc3C(F)(F)F)n(C)n2)ccc1-n1cnc(C)c1 [Compound 144],38 % Ctrl,9 % Ctrl,> 10000 nM,9 nM,–,–
COc1ccc(C(F)(F)F)cc1Nc1nc(-c2ccc(-n3cnc(C)c3)c(OC)c2)nn1C [Compound 217],35 % Ctrl,−4 % Ctrl,6460 nM,26 nM,–,–

# Reference: patent US8946266B2, “Substituted triazole and imidazole derivatives as gamma secretase modulators” (Janssen Pharmaceuticals, Inc., priority 2009, dated 2015)
